Assay results: patent publication EP4755885A1 (Shanghai Hansoh Biomedical Co., Ltd., priority 2023, dated 2025)

Key:
human GLP-1 receptor [1] = target: T1, human GLP-1 receptor (Homo sapiens, UniProt P43220); test: cAMP production in cell line stably transformed with human GLP1 receptor, 30 min co-incubation (HTRF); assay type: cell-based; details: CHO-K1/GLP-1R/CRE-luc cells, stimulation for 0.5 h, read-out: EC50
T1 construct: expressed in transfected cells
Description: (§1) The purpose of this assay example is to test the ability of the compound to activate the human GLP-1 receptor on cell surface. The EC50 for stimulated cAMP production after activation characterizes the ability of the compound to activate the human GLP-1 receptor.
In this experiment, the compound and cells were co-incubated for 30 min.
(§2) Frozen cell line CHO-K1/GLP-1R/CRE-luc stably transformed with human GLP1 receptor was removed from a liquid nitrogen tank, and was placed in a 37°C water bath for rapid thawing. The cells were resuspended in DMEM/F12 medium, and after centrifugation, were washed once. The cells were resuspended in an experimental buffer, i.e., DMEM/F12 medium containing 0.1% casein. After centrifugation, cell density was adjusted using the experimental buffer. The cells were plated onto a 384-well plate at a density of 1500 cells/5 µL/well. Then, each well was added with 2.5 µL of IBMX working solution prepared with the buffer, the final concentration of IBMX being 0.5 mM, and 2.5 µL of a serially diluted compound sample (starting from […], 3-fold dilution, 12 concentrations). The plate was centrifuged at 1000 rpm for 1 min, and was stood for incubation at 37°C for 0.5 h. Determination was performed using the Cisbio cAMP - Gs Dynamic kit. cAMP-d2 and anti-cAMP-Eu3+-Cryptate were diluted 18-fold and 20-fold respectively with cAMP Lysis & Detection Buffer, and were respectively mixed homogeneously. Each well was added with 5 µL of diluted cAMP-d2 solution, and the plate was centrifuged at 1000 rpm for 1 min, and shaken for 30 seconds for homogeneous mixing. Then, each well was added with 5 µL of diluted anti-cAMP-Eu3+-Cryptate solution, and the plate was centrifuged at 1000 rpm for 1 min and was incubated in the dark at room temperature for 1 h. HTRF signals were read using the Biotek Synergy H1 microplate reader, the excitation wavelength being 320 nm and the emission wavelengths being 620 nm and 665 nm.
(§3) The signal-to-signal ratio was calculated (665 nm/620 nm * 10,000). Nonlinear fitting between the signal-to-signal ratio and the sample concentration was performed in GraphPad Prism 10 using a four-parameter equation to obtain the EC50 value.

human GLP-1 receptor [2] = target: T1, human GLP-1 receptor; test: cAMP production in cell line stably transformed with human GLP1 receptor, 2 h co-incubation (HTRF); assay type: cell-based; details: CHO-K1/GLP-1R/CRE-luc cells, stimulation for 2 h, read-out: EC50
Description: as §1
In this experiment, the compound and cells were co-incubated for 2 h.
as §2, with “for 2” for “for 0.5”
as §3

[3] = Pharmacokinetic evaluation in beagles, oral administration; assay type: in vivo; details: dog, po, p.o. 2 mg/kg, plasma; for Cmax: read-out: Cmax; for MRT inf: read-out: MRT 0-∞; for Tmax: read-out: tmax
Description: Beagles were used as test animals to study the pharmacokinetic behavior of the compound of the present invention, administered orally at a dose of 2 mg/kg, in beagles (plasma).
Beagles, 3 per group, male.
Preparation of drug for oral administration: 10%PEG400/10%PG/80% glycine buffer (100 mM glycine, 64 Mm NaOH, […]) buffer.
Single PK: The compound of the present invention was weighed into a 100 mL glass bottle, and the solution was added. The pH was first adjusted with 1 M NaOH until the compound dissolves to obtain a clear solution, and then the pH was readjusted to pH 9.0-9.5 with 1 M HCl. Sonication was performed for 10 min to obtain a colorless clear solution having a concentration of 0.4 mg/mL.
Three beagles, male, respectively administered p.o. after fasting overnight, at a dose of 2 mg/kg and in an administration volume of 5 mL/kg.
Blood collection: 0.3 mL of blood was collected from the forelimb vein of the beagles before administration and at 0.25, 0.5, 1, 2, 4, 6, 8, and 24 h after administration. The blood samples were placed in EDTA-K2 anticoagulant tubes and centrifuged at 6000 rpm at 4°C for 6 min to separate plasma, which was stored at -80°C. The beagles were fed 4 h after administration.
• 1) 40 µL of a plasma sample was added with 160 µL of acetonitrile for precipitation, and after mixing, the mixture was centrifuged at 3500 × g for 5 to 20 min. • 2) The supernatant solution after treatment was taken for LC/MS/MS analysis of the concentration of the test compound. The LC/MS/MS analysis instrument was AB Sciex API 4000 Qtrap.
• Liquid phase condition: Shimadzu LC-20AD pump • Chromatographic column: Agilent ZORBAX XDB-C18 (50×2.1 mm, 3.5 µm) Mobile phase: Solution A was 0.1% formic acid aqueous solution, and Solution B was acetonitrile • Flow rate: 0.4 mL/min • Elution time: 0-4.0 min, the eluent was as follows: […]

[4] = Pharmacokinetic evaluation in mice, oral administration; assay type: in vivo, Balb/c mice; details: p.o. 5 mg/kg, plasma, single PK
Outline: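 Male Balb/c mice (n=3) dosed p.o. at 5 mg/kg after overnight fast, vehicle 10% PEG400/10% PG/80% glycine buffer (pH 10), 0.5 mg/mL. EDTA plasma, acetonitrile precipitation, compound quantified by LC/MS/MS; PK parameters by noncompartmental-style software calculation.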

T1 sequence (P43220 24-463): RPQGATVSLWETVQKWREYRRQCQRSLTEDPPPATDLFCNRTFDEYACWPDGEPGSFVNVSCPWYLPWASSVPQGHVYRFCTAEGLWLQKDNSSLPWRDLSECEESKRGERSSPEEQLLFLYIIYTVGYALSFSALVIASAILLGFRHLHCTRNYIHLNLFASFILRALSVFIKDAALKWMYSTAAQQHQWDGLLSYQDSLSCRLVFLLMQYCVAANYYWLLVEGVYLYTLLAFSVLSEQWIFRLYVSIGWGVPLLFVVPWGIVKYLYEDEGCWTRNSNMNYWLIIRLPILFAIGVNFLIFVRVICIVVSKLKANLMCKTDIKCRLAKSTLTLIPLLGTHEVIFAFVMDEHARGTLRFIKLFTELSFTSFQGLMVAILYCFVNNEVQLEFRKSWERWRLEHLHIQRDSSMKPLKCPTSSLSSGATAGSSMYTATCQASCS

[2H]C([2H])([2H])N1C(=O)C2(CC2)c2cc(-n3ccn(-c4c5c(nn4-c4cc(C)c(C#N)c(C)c4)CCN(C(=O)c4cc6cc([C@H]7CCOC(C)(C)C7)ccc6n4[C@@]4(c6noc(=O)[nH]6)C[C@@H]4C)[C@H]5C)c3=O)ccc21 [Example 162]
EC50 (human GLP-1 receptor [1]): 0.25 nM | EC50 (human GLP-1 receptor [2]): 0.1 nM

[2H]C([2H])([2H])n1nc2c3c(c(-n4ccn(-c5c6c(nn5-c5cc(C)c(F)c(C)c5)CCN(C(=O)c5cc7cc([C@H]8CCOC(C)(C)C8)ccc7n5[C@@]5(c7noc(=O)[nH]7)C[C@@H]5COC5CC5)[C@H]6C)c4=O)ccc31)OCCC2 [Example 285, 3-((1S,2S)-2-(cyclopropyloxymethyl)-1-(5-((S)-2,2-dimethyltetrahydro-2H-pyran-4-yl)-2-((S)-2-(4-fluoro-3,5-dimethylphenyl)-4-methyl-3-(3-(2-(methyl-d3)-2,7,8,9-tetrahydrooxahepta[4,3,2-cd]indazol-5-yl)-2-carbonyl-2,3-dibydro-1H-imidazol-1-yl)-4,5,6,7-tetrahydro-2H-pyrazolo[4,3-c]pyridine-5-carbonyl)-1H-indol-1-yl)cyclopropyl)-1,2,4-oxadiazol-5(4H)-one]
EC50 (human GLP-1 receptor [1]): 0.71 nM | EC50 (human GLP-1 receptor [2]): 0.09 nM | AUC(0-inf) ([3]; male, beagle): 19400 ng·h/mL | half-life ([3]; male, beagle): 4.1 h | AUC(0-t) ([3]; male, beagle, read-out: AUC 0-t): 19200 ng·h/mL | Cmax ([3]; male, beagle): 3600 ng/mL | MRT inf ([3]; male, beagle): 5.3 h | Tmax ([3]; male, beagle): 1.5 h

[2H]C([2H])([2H])n1nc2c3c(c(-n4ccn(-c5c6c(nn5-c5cc(C)c(F)c(C)c5)CCN(C(=O)c5cc7cc([C@H]8CCOC(C)(C)C8)ccc7n5[C@@]5(c7noc(=O)[nH]7)C[C@@H]5C#C)[C@H]6C)c4=O)ccc31)OCCC2 [Example 287, 3-((1S,2R)-1-(5-((S)-2,2-dimethyltetrahydro-2H-pyran-4-yl)-2-((S)-2-(4-fluoro-3,5-dimethylphenyl)-4-methyl-3-(3-(2-(methyl-d3)-2,7,8,9-tetrahydrooxaheptano[4,3,2-cd]indazol-5-yl)-2-carbonyl-2,3-dihydro-1H-imidazol-1-yl)-4,5,6,7-tetrahydro-2H-pyrazolo[4,3-c]pyridine-5-carbonyl)-1H-indol-1-yl)-2-ethynylcyclopropyl)-1,2,4-oxadiazol-5(4H)-one]
EC50 (human GLP-1 receptor [1]): 0.9 nM | AUC(0-inf) ([4]; mouse, in vivo, po): 28000 ng·h/mL | AUC(0-t) ([4]; mouse, in vivo, po): 27900 ng·h/mL | Cmax ([4]; mouse, in vivo, po): 5320 ng/mL | Tmax ([4]; mouse, in vivo, po): 1 h | MRT inf ([4]; mouse, in vivo, po, read-out: MRT 0-∞): 4.2 h | tl/2 [4]: 3.0 h | AUC(0-inf) [3]: 17200 ng·h/mL | AUC(0-t) at 24 h [3]: 17000 ng·h/mL | half-life [3]: 3.7 h | Cmax [3]: 1880 ng/mL | MRT inf [3]: 6.1 h | Tmax [3]: 2.3 h
